Assays:
[1] = target: T1, Serine/threonine-protein kinase PAK 1 (Homo sapiens, UniProt Q13153); assay: Inhibition of PAK1 (unknown origin)
[2] = target: T2, Serine/threonine-protein kinase PAK 4 (Homo sapiens, UniProt O96013); assay: Inhibition of PAK4 (unknown origin)
Target sequence in this assay (O96013 whole entry): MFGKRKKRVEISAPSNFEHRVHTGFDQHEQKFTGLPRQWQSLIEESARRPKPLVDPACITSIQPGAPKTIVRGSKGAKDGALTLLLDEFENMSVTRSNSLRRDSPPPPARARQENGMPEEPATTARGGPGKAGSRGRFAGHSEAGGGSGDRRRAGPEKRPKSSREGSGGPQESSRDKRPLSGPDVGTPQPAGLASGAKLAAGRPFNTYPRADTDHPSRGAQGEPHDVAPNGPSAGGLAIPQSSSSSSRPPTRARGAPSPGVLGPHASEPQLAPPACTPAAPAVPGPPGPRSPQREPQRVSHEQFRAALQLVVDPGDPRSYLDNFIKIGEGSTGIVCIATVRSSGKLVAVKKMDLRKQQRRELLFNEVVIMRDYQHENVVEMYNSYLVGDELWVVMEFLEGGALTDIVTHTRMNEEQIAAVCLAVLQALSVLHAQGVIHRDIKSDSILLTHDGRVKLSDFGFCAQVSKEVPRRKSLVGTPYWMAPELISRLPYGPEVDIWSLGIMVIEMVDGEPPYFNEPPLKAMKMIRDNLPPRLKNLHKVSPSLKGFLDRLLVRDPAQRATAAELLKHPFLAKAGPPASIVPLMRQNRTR

[3] = target: T3, Aurora kinase A (Homo sapiens, UniProt O14965); assay: Inhibition of Aurora A (unknown origin)
T3 sequence (O14965 whole entry): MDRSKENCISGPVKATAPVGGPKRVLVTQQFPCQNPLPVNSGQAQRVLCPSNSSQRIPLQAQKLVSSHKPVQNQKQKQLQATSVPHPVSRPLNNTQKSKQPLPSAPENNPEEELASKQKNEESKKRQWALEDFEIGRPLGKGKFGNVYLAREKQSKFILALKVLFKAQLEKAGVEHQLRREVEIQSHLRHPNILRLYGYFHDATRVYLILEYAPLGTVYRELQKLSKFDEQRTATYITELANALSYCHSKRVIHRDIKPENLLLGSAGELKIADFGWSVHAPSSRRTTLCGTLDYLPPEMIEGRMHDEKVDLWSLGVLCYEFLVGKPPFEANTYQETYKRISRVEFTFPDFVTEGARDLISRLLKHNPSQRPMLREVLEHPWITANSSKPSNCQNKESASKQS

[4] = Lipophilicity, log D of the compound at pH 7.4; assay type: physicochemical; details: buffer
[5] = target: T1, Serine/threonine-protein kinase PAK 1; assay: Inhibition of PAK1 in human EBC1 cells assessed as inhibition of MEK phosphorylation at S298; assay type: cell-based
[6] = Oral bioavailability in mouse at 25 mg/kg; assay type: ADME, organism-based; details: in vivo
[7] = Apparent permeability across apical to basolateral side of MDCK cells; assay type: ADME, cell-based, Canis lupus familiaris; details: dog
[8] = Clearance in mouse at 0.3 mg/kg, iv; assay type: ADME, organism-based; details: in vivo
[9] = (§1) AUC in mouse at 25 mg/kg, po; assay type: ADME, organism-based; details: in vivo
[10] = target: Protein kinase C theta type (Homo sapiens) (UniProt Q04759); assay: Inhibition of recombinant human PKCtheta at 1 uM relative to control
[11] = target: CDK2/Cyclin A2 (Homo sapiens) (UniProt P24941+P20248); assay: Inhibition of recombinant human CDK2/cyclin A at 1 uM relative to control; assay type: protein-complex assay
[12] = target: Ribosomal protein S6 kinase alpha-2 (Homo sapiens) (UniProt Q15349); details: 1 uM
Description: Inhibition of recombinant human RSK3 at 1 uM relative to control

[13] = target: Aurora kinase A (Homo sapiens) (UniProt O14965); details: 1 uM
Description: Inhibition of recombinant human Aurora A at 1 uM relative to control

[14] = target: Cyclin-dependent kinase 1/cyclin B1 (Homo sapiens) (UniProt P06493+P14635); details: 1 uM
Description: Inhibition of recombinant human CDK1/cyclin B at 1 uM relative to control

[15] = target: Cyclin-dependent kinase 5/CDK5 activator 1 (Homo sapiens) (UniProt Q00535+Q15078); details: 1 uM
Description: Inhibition of recombinant human CDK5/p25 at 1 uM relative to control

[16] = target: Cyclin-dependent kinase 7/ cyclin H (Homo sapiens) (UniProt P51946+P50613); details: 1 uM
Description: Inhibition of recombinant human CDK7/cyclin H at 1 uM relative to control

[17] = target: Myotonin-protein kinase (Homo sapiens) (UniProt Q09013); details: 1 uM
Description: Inhibition of recombinant human DMPK at 1 uM relative to control

[18] = target: Epidermal growth factor receptor (Homo sapiens) (UniProt P00533); details: 1 uM
Description: Inhibition of recombinant human EGFR at 1 uM relative to control

[19] = target: Receptor-type tyrosine-protein kinase FLT3 (Homo sapiens) (UniProt P36888); details: 1 uM
Description: Inhibition of recombinant human FLT3 at 1 uM relative to control

[20] = target: Glycogen synthase kinase-3 alpha (Homo sapiens) (UniProt P49840); details: 1 uM
Description: Inhibition of GSK-3alpha (unknown origin) at 1 uM relative to control

[21] = target: Tyrosine-protein kinase JAK2 (Homo sapiens) (UniProt O60674); details: 1 uM
Description: Inhibition of recombinant human JAK2 at 1 uM relative to control

[22] = target: Vascular endothelial growth factor receptor 2 (Homo sapiens) (UniProt P35968); details: 1 uM
Description: Inhibition of recombinant human KDR at 1 uM relative to control

[23] = target: Mitogen-activated protein kinase kinase kinase kinase 5 (Homo sapiens) (UniProt Q9Y4K4); details: 1 uM
Description: Inhibition of recombinant human KHS1 at 1 uM relative to control

[24] = target: Mitogen-activated protein kinase kinase kinase 9 (Homo sapiens) (UniProt P80192); details: 1 uM
Description: Inhibition of recombinant human MLK1 at 1 uM relative to control

[25] = target: Serine/threonine-protein kinase 4 (Homo sapiens) (UniProt Q13043); details: 1 uM
Description: Inhibition of recombinant human MST1 at 1 uM relative to control

[26] = target: Serine/threonine-protein kinase 3 (Homo sapiens) (UniProt Q13188); details: 1 uM
Description: Inhibition of recombinant human MST2 at 1 uM relative to control

[27] = target: T1, Serine/threonine-protein kinase PAK 1; details: 1 uM
Description: Inhibition of recombinant human PAK1 at 1 uM relative to control

[28] = target: T2, Serine/threonine-protein kinase PAK 4; details: 1 uM
Target sequence in this assay (O96013 whole entry, looked up): as the sequence (O96013 whole entry) above
Description: Inhibition of recombinant human PAK4 at 1 uM relative to control

[29] = tested on: Platelet-derived growth factor receptor alpha (Homo sapiens), P16234 [V561D]; details: 1 uM
Description: Inhibition of recombinant human PDGFRalpha V561D mutant at 1 uM relative to control

[30] = target: Protein kinase C alpha type (Homo sapiens) (UniProt P17252); details: 1 uM
Description: Inhibition of recombinant human PKCalpha at 1 uM relative to control

[31] = target: Protein kinase C delta type (Homo sapiens) (UniProt Q05655); details: 1 uM
Description: Inhibition of recombinant human PKCdelta at 1 uM relative to control

[32] = target: Proto-oncogene tyrosine-protein kinase Src (Homo sapiens) (UniProt P12931); details: 1 uM
Description: Inhibition of recombinant human Src at 1 uM relative to control

[33] = target: High affinity nerve growth factor receptor (Homo sapiens) (UniProt P04629); details: 1 uM
Description: Inhibition of recombinant human TrkA at 1 uM relative to control

[34] = target: BDNF/NT-3 growth factors receptor (Homo sapiens) (UniProt Q16620); details: 1 uM
Description: Inhibition of recombinant human TrkB at 1 uM relative to control

[35] = tested on: Mus musculus; assay: as §1; assay type: ADME, organism-based; details: in vivo, BLD = below limit of detection

T1 sequence (Q13153 whole entry): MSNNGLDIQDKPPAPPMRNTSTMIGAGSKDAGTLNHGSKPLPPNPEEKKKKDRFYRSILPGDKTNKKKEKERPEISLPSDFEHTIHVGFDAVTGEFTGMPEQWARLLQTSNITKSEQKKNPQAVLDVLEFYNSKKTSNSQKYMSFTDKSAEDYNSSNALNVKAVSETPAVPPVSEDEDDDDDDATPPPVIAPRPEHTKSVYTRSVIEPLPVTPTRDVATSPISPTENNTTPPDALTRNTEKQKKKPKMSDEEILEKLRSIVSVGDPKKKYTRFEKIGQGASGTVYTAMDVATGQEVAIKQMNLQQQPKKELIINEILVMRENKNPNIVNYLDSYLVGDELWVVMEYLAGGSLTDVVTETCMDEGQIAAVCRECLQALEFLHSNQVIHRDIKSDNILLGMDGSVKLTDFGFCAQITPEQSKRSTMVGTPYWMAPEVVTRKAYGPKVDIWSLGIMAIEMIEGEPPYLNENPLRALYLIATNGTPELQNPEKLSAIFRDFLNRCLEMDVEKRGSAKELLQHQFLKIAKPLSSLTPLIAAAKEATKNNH
Sequence of Protein kinase C theta type (Homo sapiens) (Q04759 whole entry, looked up): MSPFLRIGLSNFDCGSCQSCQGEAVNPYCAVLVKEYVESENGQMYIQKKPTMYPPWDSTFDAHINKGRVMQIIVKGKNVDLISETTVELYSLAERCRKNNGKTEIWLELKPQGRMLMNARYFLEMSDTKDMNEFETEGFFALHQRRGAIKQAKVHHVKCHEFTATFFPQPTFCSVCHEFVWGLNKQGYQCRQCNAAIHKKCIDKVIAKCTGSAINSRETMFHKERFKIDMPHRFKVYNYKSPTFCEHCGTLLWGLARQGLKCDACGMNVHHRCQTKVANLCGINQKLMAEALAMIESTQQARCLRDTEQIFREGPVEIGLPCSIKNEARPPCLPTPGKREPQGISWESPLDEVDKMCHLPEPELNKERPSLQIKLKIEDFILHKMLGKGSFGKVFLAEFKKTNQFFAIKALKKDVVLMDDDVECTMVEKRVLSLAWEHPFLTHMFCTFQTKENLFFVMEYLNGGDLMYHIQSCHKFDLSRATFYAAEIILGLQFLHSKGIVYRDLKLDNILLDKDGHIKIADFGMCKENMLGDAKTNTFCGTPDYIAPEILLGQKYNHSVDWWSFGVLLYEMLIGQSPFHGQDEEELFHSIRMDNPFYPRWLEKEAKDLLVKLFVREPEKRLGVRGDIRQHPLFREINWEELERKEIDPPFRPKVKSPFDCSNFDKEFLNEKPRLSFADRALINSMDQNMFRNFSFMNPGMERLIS
Sequence of Protein kinase C delta type (Homo sapiens) (Q05655 whole entry, looked up): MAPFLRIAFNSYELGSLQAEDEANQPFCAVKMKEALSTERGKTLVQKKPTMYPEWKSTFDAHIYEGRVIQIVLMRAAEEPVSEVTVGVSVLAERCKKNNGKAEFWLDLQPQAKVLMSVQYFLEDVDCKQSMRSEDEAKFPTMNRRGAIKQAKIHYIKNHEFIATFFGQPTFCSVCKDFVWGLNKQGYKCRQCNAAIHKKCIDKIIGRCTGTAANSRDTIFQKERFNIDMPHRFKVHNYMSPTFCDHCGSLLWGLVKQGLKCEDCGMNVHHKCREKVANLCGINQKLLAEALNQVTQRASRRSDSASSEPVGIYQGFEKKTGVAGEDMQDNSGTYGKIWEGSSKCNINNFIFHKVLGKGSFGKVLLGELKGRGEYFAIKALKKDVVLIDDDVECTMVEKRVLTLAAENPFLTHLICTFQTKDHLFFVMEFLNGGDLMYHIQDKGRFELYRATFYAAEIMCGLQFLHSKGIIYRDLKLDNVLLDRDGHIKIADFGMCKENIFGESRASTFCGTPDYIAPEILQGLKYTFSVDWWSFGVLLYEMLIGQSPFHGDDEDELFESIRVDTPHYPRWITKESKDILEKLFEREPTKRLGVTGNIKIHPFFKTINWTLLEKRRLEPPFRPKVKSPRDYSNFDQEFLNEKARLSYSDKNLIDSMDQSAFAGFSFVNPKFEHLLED
Sequence of Mitogen-activated protein kinase kinase kinase 9 (Homo sapiens) (P80192 whole entry, looked up): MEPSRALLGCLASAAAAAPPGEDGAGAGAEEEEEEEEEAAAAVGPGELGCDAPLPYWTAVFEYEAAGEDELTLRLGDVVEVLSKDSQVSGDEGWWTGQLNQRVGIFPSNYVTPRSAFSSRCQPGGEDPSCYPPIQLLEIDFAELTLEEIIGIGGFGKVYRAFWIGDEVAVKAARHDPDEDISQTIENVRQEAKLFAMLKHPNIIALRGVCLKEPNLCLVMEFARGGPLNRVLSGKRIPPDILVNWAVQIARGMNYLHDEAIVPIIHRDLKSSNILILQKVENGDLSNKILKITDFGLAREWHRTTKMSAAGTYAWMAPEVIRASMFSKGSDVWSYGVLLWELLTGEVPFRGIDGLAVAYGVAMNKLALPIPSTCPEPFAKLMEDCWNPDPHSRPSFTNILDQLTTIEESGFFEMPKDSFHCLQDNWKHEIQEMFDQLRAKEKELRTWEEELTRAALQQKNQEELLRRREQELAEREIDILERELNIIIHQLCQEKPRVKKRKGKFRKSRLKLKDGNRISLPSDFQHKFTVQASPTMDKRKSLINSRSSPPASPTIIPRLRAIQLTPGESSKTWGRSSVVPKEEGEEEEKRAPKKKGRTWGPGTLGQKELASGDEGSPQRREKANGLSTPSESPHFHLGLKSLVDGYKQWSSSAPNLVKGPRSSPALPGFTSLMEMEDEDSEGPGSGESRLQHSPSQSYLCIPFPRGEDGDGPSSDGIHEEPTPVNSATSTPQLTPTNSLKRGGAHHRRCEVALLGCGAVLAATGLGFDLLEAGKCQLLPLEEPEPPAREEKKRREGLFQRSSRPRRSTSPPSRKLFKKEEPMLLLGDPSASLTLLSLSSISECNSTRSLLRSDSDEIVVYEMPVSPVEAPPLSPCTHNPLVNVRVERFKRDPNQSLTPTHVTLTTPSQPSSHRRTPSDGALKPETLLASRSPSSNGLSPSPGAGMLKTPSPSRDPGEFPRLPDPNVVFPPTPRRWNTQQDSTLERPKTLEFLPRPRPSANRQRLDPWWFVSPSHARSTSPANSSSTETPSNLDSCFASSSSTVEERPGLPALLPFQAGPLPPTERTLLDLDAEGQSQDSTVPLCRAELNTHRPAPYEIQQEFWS
Sequence of Platelet-derived growth factor receptor alpha (Homo sapiens), P16234 [V561D] (P16234 whole entry V561D): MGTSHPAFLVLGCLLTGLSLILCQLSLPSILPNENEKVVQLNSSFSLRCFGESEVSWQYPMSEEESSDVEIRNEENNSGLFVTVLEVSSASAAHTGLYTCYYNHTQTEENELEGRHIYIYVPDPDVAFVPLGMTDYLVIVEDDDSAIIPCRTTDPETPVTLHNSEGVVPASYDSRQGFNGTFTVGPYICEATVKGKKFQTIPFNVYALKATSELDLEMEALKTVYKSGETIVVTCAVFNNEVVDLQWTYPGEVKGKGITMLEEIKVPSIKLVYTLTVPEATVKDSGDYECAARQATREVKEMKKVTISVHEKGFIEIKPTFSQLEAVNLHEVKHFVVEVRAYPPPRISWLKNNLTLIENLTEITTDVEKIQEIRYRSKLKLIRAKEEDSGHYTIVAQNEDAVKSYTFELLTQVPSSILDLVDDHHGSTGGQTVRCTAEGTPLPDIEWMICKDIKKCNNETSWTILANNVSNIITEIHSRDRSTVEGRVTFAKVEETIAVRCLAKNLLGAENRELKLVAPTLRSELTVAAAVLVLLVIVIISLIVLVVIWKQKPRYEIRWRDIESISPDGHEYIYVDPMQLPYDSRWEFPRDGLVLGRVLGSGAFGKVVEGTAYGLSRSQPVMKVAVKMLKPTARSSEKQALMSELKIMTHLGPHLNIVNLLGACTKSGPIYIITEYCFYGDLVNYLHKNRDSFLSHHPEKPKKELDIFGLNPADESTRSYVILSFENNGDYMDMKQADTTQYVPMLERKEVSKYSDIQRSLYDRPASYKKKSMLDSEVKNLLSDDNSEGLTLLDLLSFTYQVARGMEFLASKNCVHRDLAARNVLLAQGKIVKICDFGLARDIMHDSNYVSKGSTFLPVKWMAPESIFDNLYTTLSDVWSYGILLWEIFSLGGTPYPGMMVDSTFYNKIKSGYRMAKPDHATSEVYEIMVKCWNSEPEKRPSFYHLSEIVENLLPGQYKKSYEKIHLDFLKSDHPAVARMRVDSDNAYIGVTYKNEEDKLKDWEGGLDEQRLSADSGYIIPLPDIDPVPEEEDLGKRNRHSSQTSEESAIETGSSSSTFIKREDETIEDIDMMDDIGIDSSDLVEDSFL

**Q.** What does the source list for `CN1CC[C@H](c2cc(Nc3ccnc(N(C)C[C@H]4CC[C@H](N)CC4)n3)n[nH]2)C1=O`?
**A.** Ki [1]: 37 nM; Ki [2]: 344 nM; Ki [3]: 3500 nM; logD [4]: 0.96; IC50 [5]: > 10 µM; bioavailability [6]: < 1%

**Q.** Which Ki [1] does the source give for `CC(=O)N(C)Cc1cc(Nc2ccnc(N(C)Cc3ccc4[nH]cnc4c3Cl)n2)n[nH]1` here?
**A.** Its Ki is 373 nM.

**Q.** What about the Ki [2] of the same compound?
**A.** The Ki was > 2900 nM.

**Q.** What about the Ki [3] of the same compound?
**A.** Its Ki is 893 nM.

**Q.** With `CN1CC[C@@H](c2cc(Nc3ccnc(N(C)Cc4ccc5[nH]cnc5c4Cl)n3)n[nH]2)C1=O` as the compound, how does the Ki [1] read?
**A.** Its Ki is 552 nM.

**Q.** And the Ki [2]?
**A.** Its Ki is > 2900 nM.

**Q.** What about the Ki [3] of the same compound?
**A.** Its Ki is > 5400 nM.

**Q.** Which Ki [1] does the source give for `CN1CC[C@H](c2cc(Nc3ccnc(N(C)Cc4ccc5[nH]cnc5c4Cl)n3)n[nH]2)C1=O` here?
**A.** Its Ki is 18 nM.

**Q.** What about the Ki [2] of the same compound?
**A.** Its Ki is 950 nM.

**Q.** And the Ki [3]?
**A.** Its Ki is > 5400 nM.

**Q.** And the logD [4]?
**A.** Its logD is 1.8.

**Q.** What about the Papp A→B [7] of the same compound?
**A.** The Papp A→B was 5 ×10⁻⁶ cm/s.

**Q.** What about the IC50 [5] of the same compound?
**A.** The IC50 was 7.8 µM.

**Q.** What about the clearance [8] of the same compound?
**A.** The clearance was 7 mL/min/kg.

**Q.** What about the AUC [9] of the same compound?
**A.** The AUC was 5.2 µM·h.

**Q.** What about the bioavailability [6] of the same compound?
**A.** The bioavailability was < 1%.

**Q.** With `CN1CC(C)(C)C(c2cc(Nc3ccnc(N(C)C[C@H]4CC[C@H](N)CC4)n3)n[nH]2)C1=O` (stereo partly drawn) as the compound, how does the Ki [1] read?
**A.** Its Ki is > 4500 nM.

**Q.** And the Ki [2]?
**A.** The Ki was > 2900 nM.

**Q.** What about the Ki [3] of the same compound?
**A.** Its Ki is > 5400 nM.

**Q.** Which Ki [1] does the source give for `CN1CCCC(c2cc(Nc3ccnc(N(C)C[C@H]4CC[C@H](N)CC4)n3)n[nH]2)C1=O` (mixture of isomers) here?
**A.** Its Ki is 362 nM.

**Q.** And the Ki [2]?
**A.** Its Ki is 2490 nM.

**Q.** And the Ki [3]?
**A.** The Ki was > 5400 nM.

**Q.** Which Ki [1] does the source give for `CCN1CC[C@H](c2cc(Nc3ccnc(N(C)C[C@H]4CC[C@H](N)CC4)n3)n[nH]2)C1=O` here?
**A.** Its Ki is 18 nM.

**Q.** What about the Ki [2] of the same compound?
**A.** The Ki was 817 nM.

**Q.** And the Ki [3]?
**A.** Its Ki is > 5400 nM.

**Q.** What does the source list for `COCC(C)c1cc(Nc2ccnc(N(C)Cc3ccc4[nH]cnc4c3Cl)n2)n[nH]1` (stereo not drawn)?
**A.** Ki [1]: 29 nM; Ki [2]: 617 nM; Ki [3]: 131 nM

**Q.** With `CN(Cc1ccc2[nH]cnc2c1Cl)c1nccc(Nc2cc(C3CCC(=O)C3)[nH]n2)n1` (racemic) as the compound, how does the Ki [1] read?
**A.** Its Ki is 16 nM.

**Q.** What about the Ki [2] of the same compound?
**A.** The Ki was 629 nM.

**Q.** And the Ki [3]?
**A.** The Ki was 17 nM.

**Q.** With `CN1CC[C@H](c2cc(Nc3ccnc(NC[C@H]4CC[C@H](N)CC4)n3)n[nH]2)C1=O` as the compound, how does the Ki [1] read?
**A.** The Ki was 111 nM.

**Q.** And the Ki [2]?
**A.** Its Ki is 1270 nM.

**Q.** And the Ki [3]?
**A.** Its Ki is > 5400 nM.

**Q.** Which Ki [1] does the source give for `CN(Cc1ccc2[nH]cnc2c1Cl)c1nccc(Nc2cc(C3CC3)[nH]n2)n1` here?
**A.** The Ki was 5 nM.

**Q.** And the Ki [2]?
**A.** Its Ki is 272 nM.

**Q.** What about the Ki [3] of the same compound?
**A.** Its Ki is 3 nM.

**Q.** Which Ki [1] does the source give for `C[C@H]1CN(C)C(=O)[C@@H]1c1cc(Nc2ccnc(N(C)C[C@H]3CC[C@H](N)CC3)n2)n[nH]1` here?
**A.** Its Ki is 46 nM.

**Q.** What about the Ki [2] of the same compound?
**A.** Its Ki is 1020 nM.

**Q.** And the Ki [3]?
**A.** The Ki was > 5400 nM.

**Q.** What about the inhibition [10] of the same compound?
**A.** Its inhibition is > 75%.

**Q.** And the inhibition [11]?
**A.** Its inhibition is < 75%.

**Q.** What about the inhibition [12] of the same compound?
**A.** The inhibition was < 75%.

**Q.** What about the inhibition [13] of the same compound?
**A.** Its inhibition is < 75%.

**Q.** And the inhibition [14]?
**A.** The inhibition was < 75%.

**Q.** What about the inhibition [15] of the same compound?
**A.** The inhibition was < 75%.

**Q.** What about the inhibition [16] of the same compound?
**A.** The inhibition was < 75%.

**Q.** And the inhibition [17]?
**A.** Its inhibition is < 75%.

**Q.** What about the inhibition [18] of the same compound?
**A.** The inhibition was < 75%.

**Q.** What about the inhibition [19] of the same compound?
**A.** The inhibition was < 75%.

**Q.** What about the inhibition [20] of the same compound?
**A.** The inhibition was < 75%.

**Q.** And the inhibition [21]?
**A.** Its inhibition is < 75%.

**Q.** What about the inhibition [22] of the same compound?
**A.** The inhibition was < 75%.

**Q.** And the inhibition [23]?
**A.** Its inhibition is < 75%.

**Q.** What about the inhibition [24] of the same compound?
**A.** Its inhibition is < 75%.

**Q.** What about the inhibition [25] of the same compound?
**A.** Its inhibition is < 75%.

**Q.** What about the inhibition [26] of the same compound?
**A.** The inhibition was < 75%.

**Q.** And the inhibition [27]?
**A.** Its inhibition is > 75%.

**Q.** What about the inhibition [28] of the same compound?
**A.** The inhibition was < 75%.

**Q.** And the inhibition [29]?
**A.** The inhibition was < 75%.

**Q.** What about the inhibition [30] of the same compound?
**A.** Its inhibition is < 75%.

**Q.** What about the inhibition [31] of the same compound?
**A.** The inhibition was < 75%.

**Q.** What about the inhibition [32] of the same compound?
**A.** Its inhibition is < 75%.

**Q.** And the inhibition [33]?
**A.** The inhibition was < 75%.

**Q.** And the inhibition [34]?
**A.** The inhibition was < 75%.

**Q.** What does the source list for `Clc1c(CNc2nccc(Nc3cc(C4CCCO4)[nH]n3)n2)ccc2[nH]cnc12` (racemic)?
**A.** Ki [1]: 25 nM; Ki [2]: 1300 nM; Ki [3]: 25 nM

**Q.** With `CCN(C[C@H]1CC[C@H](N)CC1)c1nccc(Nc2cc([C@H]3CCN(C)C3=O)[nH]n2)n1` as the compound, how does the Ki [1] read?
**A.** The Ki was 49 nM.

**Q.** What about the Ki [2] of the same compound?
**A.** The Ki was 621 nM.

**Q.** What about the Ki [3] of the same compound?
**A.** Its Ki is > 5400 nM.

**Q.** And the inhibition [10]?
**A.** The inhibition was > 75%.

**Q.** What about the logD [4] of the same compound?
**A.** Its logD is 0.12.

**Q.** What about the IC50 [5] of the same compound?
**A.** The IC50 was > 10 µM.

**Q.** And the clearance [8]?
**A.** Its clearance is 33 mL/min/kg.

**Q.** And the AUC [35]?
**A.** Its AUC is “BLD”.

**Q.** And the bioavailability [6]?
**A.** The bioavailability was < 1%.

**Q.** What about the inhibition [11] of the same compound?
**A.** The inhibition was < 75%.

From ChEMBL document CHEMBL3593241, “Leveraging the Pre-DFG Residue Thr-406 To Obtain High Kinase Selectivity in an Aminopyrazole-Type PAK1 Inhibitor Series” (ACS Med Chem Lett, 2015)
